Legend:
[1] = tested on: L1210 (ATCC CCL-219) mouse lymphocytic leukemia cells; assay: Cell growth inhibition assay; assay type: cell-based; conditions: for fold less active than duocarmycin SA (loss in activity): L1210, relative to duocarmycin SA
[2] = PAMPA assay; assay type: in vitro ADME; conditions: for Papp at 5 h, 1 μM: pH 7.4

## COCCOCCOCCOCCOCCOc1cc2cc(C(=O)N3C[C@@H](CCl)c4c3cc(O)c3[nH]c(C(=O)OC)cc43)[nH]c2c(OCCOCCOCCOCCOCCOC)c1OCCOCCOCCOCCOCCOC [10e]
[1]; Mus musculus, L1210, read-out: –log IC50, cell growth inhibition (converted)
  IC50: 398 nM
[2]
  Papp at 5 h, 1 μM: 0.11 ×10⁻⁶ cm/s
[2]; relative to 2
  fold reduction in permeability relative to 2: 85 fold

## COC(=O)c1cc2c([nH]1)C(=O)C=C1N(C(=O)c3cc4cc(OC)c(OC)c(OC)c4[nH]3)CC3CC123 (stereo not drawn) [compound 2, duocarmycin SA, reference compound]
[2]
  Papp at 5 h, 1 μM: 9.5 ×10⁻⁶ cm/s

## COCCOc1cc2cc(C(=O)N3C[C@@H](CCl)c4c3cc(O)c3[nH]c(C(=O)OC)cc43)[nH]c2c(OCCOC)c1OCCOC [10a]
[1]
  fold less active than duocarmycin SA (loss in activity): approximately 5 fold

## COCCOc1c(OC)cc2cc(C(=O)N3C[C@@H](CCl)c4c3cc(O)c3[nH]c(C(=O)OC)cc43)[nH]c2c1OC [15a]
[1]
  fold less active than duocarmycin SA (loss in activity): approximately 2 fold
[2]
  Papp at 5 h, 1 μM: 4 ×10⁻⁶ cm/s

## COCCOCCOCCOCCOCCOc1c(OC)cc2cc(C(=O)N3C[C@@H](CCl)c4c3cc(O)c3[nH]c(C(=O)OC)cc43)[nH]c2c1OC [15e]
[1]
  fold less active than duocarmycin SA (loss in activity): 30 fold
[2]
  Papp at 5 h, 1 μM: 2.1 ×10⁻⁶ cm/s
